Experimental findings from ChEMBL document CHEMBL1201862, “PubChem BioAssay data set” (2004) are described below.

Assay in all cases: DTP human tumour cell line panel, 48 h
For experiment [1], the system named is UO-31.
The subject of experiment [2] is NCI-H522.
The test system of experiment [3] is OVCAR-8.
Experiment [4] deals with SK-MEL-28.
The subject of experiment [5] is RXF 393.
Experiment [6] concerns MOLT-4.
In experiment [7] the test system is HCT-116.
The subject of experiment [8] is M14.
The subject of experiment [9] is SN12C.
Experiment [10] relates to SF-268.
In experiment [11] the test system is EKVX.
The test system of experiment [12] is COLO 205.
The test system of experiment [13] is SK-OV-3.
Experiment [14] deals with SF-539.
The test system of experiment [15] is UACC-62.
The subject of experiment [16] is RPMI-8226.
In experiment [17] the test system is HOP-92.
For experiment [18], the system named is HL-60.
The subject of experiment [19] is IGROV-1.

Molecules are shown by their SMILES.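 A five-concentration, 48-hour dose response in 96-well plates underlies each endpoint, interpolated linearly between surrounding concentrations. GI50 marks 50% less growth.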 Activity calls are given as the source filed them. Cut-off read from the data, not from the text of the source: active = GI50 up to about 1.1 µM and inactive = higher.

A word on the GI50: it is the concentration that inhibits growth by half. For the compound `CCN(CCCl)CCCCCNc1c2ccccc2nc2ccc(OC)cc12`, the GI50 in experiment [1] is 2.88 µM (inactive); in [2], 0.628 µM (active); in [3], 0.533 µM (active); in experiment [4], 2.72 µM (inactive); in experiment [5], 1.07 µM (active); in experiment [6], 0.0155 µM (active). Also, the GI50 was 0.221 µM (active) in [7]; 2.15 µM (inactive) in experiment [8]; 0.232 µM (active) in experiment [9]; 0.597 µM (active) in experiment [10]; 3.79 µM (inactive) in experiment [11]; 1.1 µM (active) in [12]. Besides, the GI50 in experiment [13] was 1.47 µM (inactive); in experiment [14], 1.04 µM (active); in experiment [15], 0.402 µM (active); in experiment [16], 0.115 µM (active); in [17] it was 0.436 µM (active); in [18] it was 0.0411 µM (active). For the same compound, the GI50 in experiment [19] is 0.578 µM (active).

On to `C/C(=N\NC(=N)N)C(CN1CCOCC1)C(c1ccccc1)c1c(O)c2ccccc2oc1=O` (stereo unspecified), for which the GI50 was > 100 µM (inactive) in [2]; > 100 µM (inactive) in experiment [3]; > 100 µM (inactive) in [4]; 29 µM (inactive) in [5]; 66.2 µM (inactive) in experiment [6]; 90.6 µM (inactive) in experiment [7]. Also, the GI50 in experiment [8] was > 100 µM (inactive); in experiment [9] it was > 100 µM (inactive); in experiment [10] it was > 100 µM (inactive); in [11], > 100 µM (inactive); in experiment [12] it was 49.4 µM (inactive); in experiment [13], > 100 µM (inactive). For the same compound, the GI50 is 77.6 µM (inactive) in [14]; 81.3 µM (inactive) in experiment [15]; 85.9 µM (inactive) in experiment [16]; 25.7 µM (inactive) in [17]; 49.1 µM (inactive) in [18]; > 100 µM (inactive) in experiment [19].

`N#Cc1ccc(Nc2cnc3cc(N)ccc3n2)cc1`: the GI50 in [1] was 56 µM (inactive); in experiment [2], 48.2 µM (inactive); in [3] it was > 100 µM (inactive); in experiment [4], > 100 µM (inactive); in experiment [5] it was 26.5 µM (inactive); in experiment [6], 41.7 µM (inactive). Further, the GI50 is 55 µM (inactive) in experiment [7]; > 100 µM (inactive) in [8]; 89.1 µM (inactive) in experiment [9]; > 100 µM (inactive) in experiment [10]; 98.2 µM (inactive) in experiment [11]; > 100 µM (inactive) in experiment [12]. The GI50 in [13] was > 100 µM (inactive); in experiment [14], > 100 µM (inactive); in experiment [15], 83.4 µM (inactive); in experiment [16] it was 42.7 µM (inactive); in [17] it was 54.5 µM (inactive); in [18], 14.9 µM (inactive).

Regarding `Cc1ccc(S(=O)(=O)NC(=O)NCCC(=O)O)cc1`, the GI50 in experiment [1], in experiment [2], in experiment [3], in experiment [4], in experiment [5] and in [6] was > 100 µM (inactive) in each case. For the same compound, the GI50 in experiment [7], in experiment [8], in experiment [9], in [10], in experiment [12] and in experiment [13] was > 100 µM (inactive) each time. In addition, the GI50 in experiment [14], in experiment [15], in experiment [16], in [17], in [18] and in experiment [19] was > 100 µM (inactive) each time.

`CCOC(=O)C12CCSC1C1(C#N)C(C#N)=CC2(N=P(c2ccccc2)(c2ccccc2)c2ccccc2)n2c(=O)n(-c3ccccc3)c(=O)n21` (stereo unspecified): the GI50 was 24.2 µM (inactive) in experiment [1]; 29.5 µM (inactive) in experiment [2]; 47.1 µM (inactive) in experiment [3]; 27.5 µM (inactive) in experiment [4]; > 100 µM (inactive) in [5]; 30.3 µM (inactive) in experiment [6]. Further, the GI50 was 36.9 µM (inactive) in [7]; 42.2 µM (inactive) in [8]; 62.2 µM (inactive) in experiment [9]; 35.1 µM (inactive) in experiment [10]; 82.2 µM (inactive) in [11]; 37.8 µM (inactive) in experiment [12]. The GI50 in [14] was 73.6 µM (inactive); in experiment [15], 27.5 µM (inactive); in [16] it was 26.1 µM (inactive); in experiment [17], 12.4 µM (inactive); in [18], 26.1 µM (inactive); in [19], 59.8 µM (inactive).

For `C/C(CC(=O)Nc1ccc(C)c(C)c1)=N\NC(N)=O`, the GI50 is > 100 µM (inactive) in experiment [1]; 82 µM (inactive) in experiment [2]; > 100 µM (inactive) in experiment [3]; > 100 µM (inactive) in experiment [4]; > 100 µM (inactive) in experiment [5]; > 100 µM (inactive) in experiment [6]. For the same compound, the GI50 in experiment [7], in experiment [8], in experiment [10], in experiment [11], in experiment [12] and in experiment [13] was > 100 µM (inactive) throughout. Also, the GI50 in experiment [14], in experiment [15], in [16], in [17], in experiment [18] and in experiment [19] was > 100 µM (inactive) throughout.

Turning to `COc1ccc(/C=N/NC(=O)NCCNCCO)cc1`, the GI50 in experiment [1], in experiment [2], in [3], in [4], in [5] and in experiment [6] was > 100 µM (inactive) each time. Moreover, the GI50 in experiment [7], in experiment [8], in experiment [9], in [10], in experiment [12] and in experiment [13] was > 100 µM (inactive) in each case. The GI50 in experiment [14], in experiment [15], in experiment [16], in experiment [17], in [18] and in experiment [19] was > 100 µM (inactive) each time.

`Cc1ccc(/C=C/C(=O)c2sc(-c3cccnc3)nc2C)cc1`: the GI50 was > 100 µM (inactive) in experiment [1]; > 100 µM (inactive) in experiment [2]; > 100 µM (inactive) in [3]; 98.9 µM (inactive) in experiment [5]; > 100 µM (inactive) in experiment [6]; > 100 µM (inactive) in experiment [9]. The GI50 in experiment [11], in experiment [12], in experiment [13], in experiment [14], in experiment [15] and in [16] was > 100 µM (inactive) each time. Moreover, the GI50 in experiment [17], in experiment [18] and in experiment [19] was > 100 µM (inactive) each time.

Regarding `CN(C)c1ccc(/C=C2\C=Cc3ccccc32)cc1`, the GI50 was 20.2 µM (inactive) in experiment [1]; 17.3 µM (inactive) in [2]; 94.8 µM (inactive) in experiment [3]; 43.6 µM (inactive) in experiment [4]; 17.9 µM (inactive) in [5]; 32.1 µM (inactive) in [6]. Besides, the GI50 was 33.1 µM (inactive) in experiment [7]; 29.2 µM (inactive) in experiment [8]; 39.9 µM (inactive) in experiment [9]; 45.1 µM (inactive) in experiment [10]; 58.6 µM (inactive) in [12]; 45.9 µM (inactive) in experiment [13]. In addition, the GI50 in experiment [14] is 50.7 µM (inactive); in experiment [15] it was 42.3 µM (inactive); in [16] it was 35.3 µM (inactive); in experiment [17], 44.5 µM (inactive); in [18], 27.9 µM (inactive); in experiment [19], 53.7 µM (inactive).

For `CC1=NN(C(=O)c2ccncc2)C(=O)C1/N=N/c1ccc(F)cc1` (stereo unspecified), the GI50 in [1] is 45.3 µM (inactive); in experiment [2], > 100 µM (inactive); in experiment [3], > 100 µM (inactive); in [4] it was > 100 µM (inactive); in experiment [5], 58.1 µM (inactive); in experiment [7] it was 96.8 µM (inactive). The GI50 was > 100 µM (inactive) in experiment [8]; > 100 µM (inactive) in experiment [9]; > 100 µM (inactive) in experiment [10]; 20 µM (inactive) in experiment [11]; > 100 µM (inactive) in experiment [12]; > 100 µM (inactive) in [13]. The GI50 in [14] was 59.2 µM (inactive); in [15], > 100 µM (inactive); in experiment [16], > 100 µM (inactive); in experiment [17], 51.6 µM (inactive); in experiment [18], > 100 µM (inactive); in [19], > 100 µM (inactive).

Take `CS/C(=N/C(=O)c1ccccc1Cl)SCCS/C(=N\C(=O)c1ccccc1Cl)SC`: the GI50 in [1], in experiment [2], in [3], in experiment [4], in experiment [5] and in experiment [6] was > 100 µM (inactive) in each case. Moreover, the GI50 in experiment [7], in [8], in experiment [9], in [10], in experiment [11] and in experiment [12] was > 100 µM (inactive) each time. Moreover, the GI50 in [14] was > 100 µM (inactive); in experiment [15] it was > 100 µM (inactive); in [16], > 100 µM (inactive); in experiment [17], 19.6 µM (inactive); in experiment [18], > 100 µM (inactive); in experiment [19], > 100 µM (inactive).
